Experimental data: publication PMC8037669, “Discovery of Novel Sultone Fused Berberine Derivatives as Promising Tdp1 Inhibitors” (Molecules, 2021)
Values joined by “and” are separate entries in the source; they are usually repeats but may differ in a detail not shown here. Equal values may be shown once. “Also recorded” adds a separate entry of the source. Read-outs that look alike come from different tables or passages of the source.

Columns and labels:
[1] = target: T1, tyrosyl-DNA phosphodiesterase 1 (Tdp1) (Homo sapiens, UniProt Q9NUW8); assay: Tdp1 activity, fluorescent oligonucleotide biosensor (FAM/BHQ1) assay; assay type: biochemical; conditions: purified Tdp1 1.5 nM, 50 nM biosensor; read-out: Tdp1 inhibiting activity IC50
T1 construct: Purified Tdp1 (1.5 nM) triggered the reaction
Protocol: In this work, newly synthesized sultones were tested for their inhibition of Tdp1. Tdp1 activity was measured using a fluorescent biosensor as previously described. The biosensor is an oligonucleotide with a fluorophore (FAM) at the 5′-end and a fluorescence quencher (BHQ1) at the 3′-end. Due to the activity of the enzyme, the quencher is removed, which leads to an increase in the fluorescence intensity. Inhibitors prevent the removal of the quencher, thus reducing the fluorescence intensity.
Tdp1 activity was detected, as described in the work in Reference, and consists of fluorescence intensity measurement in a reaction of quencher removal from a fluorophore quencher–coupled DNA oligonucleotide catalyzed by Tdp1. The reaction was carried out at different concentrations of inhibitors (the control samples contained 1% of DMSO). The reaction mixtures contained Tdp1 buffer (50 mM Tris-HCl pH 8.0, 50 mM NaCl, and 7 mM β-mercaptoethanol), 50 nM biosensor, and an inhibitor being tested. Purified Tdp1 (1.5 nM) triggered the reaction. The biosensor (5′-[FAM] AAC GTC AGGGTC TTC C [BHQ]-3′) was synthesized in the Laboratory of Biomedical Chemistry at the Institute of Chemical Biology and Fundamental Medicine (Novosibirsk, Russia).
The reactions were incubated on a POLARstar OPTIMA fluorimeter (BMG LABTECH, GmbH, Ortenberg, Germany) to measure fluorescence every 55 s (ex. 485/em. 520 nm) during the linear phase (here, data from minute 0 to minute 8). The values of IC50 were determined using a six-point concentration response curve in a minimum of three independent experiments and were calculated using MARS Data Analysis 2.0 (BMG LABTECH, Ortenberg, Germany).

[2] = Cytotoxicity, EZ4U Cell Proliferation and Cytotoxicity Assay; assay type: cell-based, human; conditions: human
Protocol: (§1) All compounds have no intrinsic toxicity in the concentration range up to 100 μM (Figure 8) in HeLa cells, with the exception of 16a and berberine, which are toxic at concentrations above 20 μM. 16a is slightly toxic (CC50 ~ 100 μM) and differs from non-toxic 10a in the presence of a double bond in the sultone cycle. The original berberine 1 is toxic to HeLa cells with a cytotoxic concentration (CC50) of 20 μM, which is consistent with the literature data.
(§2) Cytotoxicity of the compounds to HeLa (human cervical cancer) cell line was examined using the EZ4U Cell Proliferation and Cytotoxicity Assay (Biomedica, Vienna, Austria), according to the manufacturer’s protocols. The cells were grown in Iscove’s modified Dulbecco’s medium (IMDM) with 40 μg/mL gentamicin, 50 IU/mL penicillin, 50 μg/mL streptomycin (MP Biomedicals, Waltham, MA, USA), and 10% of fetal bovine serum (Biolot, Saint Petersburg, Russia) in a 5% CO2 atmosphere. After the formation of a 30–50%-monolayer, the tested compounds were added to the medium. The volume of the added reagents was 1/100 of the total volume of the culture medium, and the amount of DMSO was 1% of the final volume. Control cells were grown in the presence of 1% DMSO. The cell culture was monitored for 3 days.

HeLa cells [3] = assay: as above; assay type: cell-based, human
Protocol: as §1, §2

HeLa cells [4] = assay: Sensitization of cells to topotecan cytotoxicity by Tdp1 inhibitors; assay type: cell-based, human; conditions: inhibitor at 20 μM, varied topotecan concentrations; Mann-Whitney U-test, p = 0.05
Protocol: In this work, we also tested the ability of the berberrubine sultones to sensitize cells to the action of topotecan. For this, we chose a non-toxic concentration of Tdp1 inhibitors at 20 μM and varied the concentrations of topotecan.
as §2

[5] = target: T1, tyrosyl-DNA phosphodiesterase 1 (Tdp1); conditions: previous work of the group; read-out: Tdp1 IC50 of previously synthesized berberine derivatives; cited from earlier work

T1 sequence (Q9NUW8 whole entry): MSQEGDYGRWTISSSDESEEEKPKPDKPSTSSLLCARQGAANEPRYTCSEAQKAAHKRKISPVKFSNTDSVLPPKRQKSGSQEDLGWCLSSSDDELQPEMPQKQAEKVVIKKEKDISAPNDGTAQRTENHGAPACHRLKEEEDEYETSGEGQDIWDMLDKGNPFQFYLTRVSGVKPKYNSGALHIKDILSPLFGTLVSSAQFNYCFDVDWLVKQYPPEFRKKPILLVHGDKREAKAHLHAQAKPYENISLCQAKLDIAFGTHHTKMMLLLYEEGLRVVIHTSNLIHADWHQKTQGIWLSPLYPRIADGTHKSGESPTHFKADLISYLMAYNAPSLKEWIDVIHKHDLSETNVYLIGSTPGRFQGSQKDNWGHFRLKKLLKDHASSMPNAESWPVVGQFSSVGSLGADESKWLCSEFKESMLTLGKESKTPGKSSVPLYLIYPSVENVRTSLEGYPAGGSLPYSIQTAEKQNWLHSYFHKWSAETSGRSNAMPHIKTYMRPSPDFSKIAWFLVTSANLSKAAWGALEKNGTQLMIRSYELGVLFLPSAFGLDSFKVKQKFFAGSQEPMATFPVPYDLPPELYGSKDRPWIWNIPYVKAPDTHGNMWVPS

Compound	IC50 [1]	CC50 at 3 days [2] [nM]	also measured
COc1ccc2c3c1OS(=O)(=O)CC3N1CCc3cc4c(cc3C1=C2)OCO4 (stereo not drawn) [10a, 19-Methoxy-8,10,21-trioxa-22λ⁶-thia-2-azahexacyclo[14.7.1.0^2,¹⁴.0⁵,¹^3.0⁷,¹¹.0^2⁰,^2⁴]tetracosa-5,7(11),12,14,16,18,20(24)-heptaene-22,22-dione]	1530 ± 180 nM	> 100000	
COc1ccc2c3c1OS(=O)(=O)C(C)C3N1CCc3cc4c(cc3C1=C2)OCO4 (stereo not drawn) [10b, 19-Methoxy-23-methyl-8,10,21-trioxa-22λ⁶-thia-2-azahexacyclo[14.7.1.0^2,¹⁴.0⁵,¹^3.0⁷,¹¹.0^2⁰,^2⁴]tetracosa-5,7(11),12,14,16,18,20(24)-heptaene-22,22-dione]	2130 ± 160 nM	> 100000	
CCC1C2c3c(ccc(OC)c3OS1(=O)=O)C=C1c3cc4c(cc3CCN12)OCO4 (stereo not drawn) [10c, 23-Ethyl-19-methoxy-8,10,21-trioxa-22λ⁶-thia-2-azahexacyclo[14.7.1.0^2,¹⁴.0⁵,¹^3.0⁷,¹¹.0^2⁰,^2⁴]tetracosa-5,7(11),12,14,16,18,20(24)-heptaene-22,22-dione]	5500 ± 100 nM	> 100000	
CCCC1C2c3c(ccc(OC)c3OS1(=O)=O)C=C1c3cc4c(cc3CCN12)OCO4 (stereo not drawn) [10d, 19-Methoxy-23-propyl-8,10,21-trioxa-22λ⁶-thia-2-azahexacyclo[14.7.1.0^2,¹⁴.0⁵,¹^3.0⁷,¹¹.0^2⁰,^2⁴]tetracosa-5,7(11),12,14,16,18,20(24)-heptaene-22,22-dione]	1120 ± 180 nM	> 100000	
COc1ccc2c3c1OS(=O)(=O)C=C3N1CCc3cc4c(cc3C1=C2)OCO4 [16a, 19-Methoxy-8,10,21-trioxa-22λ⁶-thia-2-azahexacyclo[14.7.1.0^2,¹⁴.0⁵,¹^3.0⁷,¹¹.0^2⁰,^2⁴]tetracosa-1(23),5,7(11),12,14,16,18,20(24)-octaene-22,22-dione]	2500 ± 400 nM	~100000	concentration above which toxic to HeLa cells (HeLa cells [3]; human, 3 days): above 20 μM
COc1cc(Br)c2c3c1OS(=O)(=O)CC3N1CCc3cc4c(cc3C1=C2)OCO4 (stereo not drawn) [18a, 17-Bromo-19-methoxy-8,10,21-trioxa-22λ⁶-thia-2-azahexacyclo[14.7.1.0^2,¹⁴.0⁵,¹^3.0⁷,¹¹.0^2⁰,^2⁴]tetracosa-5,7(11),12,14,16,18,20(24)-heptaene-22,22-dione]	925 nM and 920 nM	> 100000	
COc1cc(Br)c2c3c1OS(=O)(=O)C(C)C3N1CCc3cc4c(cc3C1=C2)OCO4 (stereo not drawn) [18b, 17-Bromo-19-methoxy-23-methyl-8,10,21-trioxa-22λ⁶-thia-2-azahexacyclo[14.7.1.0^2,¹⁴.0⁵,¹^3.0⁷,¹¹.0^2⁰,^2⁴]tetracosa-5,7(11),12,14,16,18,20(24)-heptaene-22,22-dione]	1130 ± 200 nM	> 100000	
CCC1C2c3c(c(Br)cc(OC)c3OS1(=O)=O)C=C1c3cc4c(cc3CCN12)OCO4 (stereo not drawn) [18c, 17-Bromo-23-ethyl-19-methoxy-8,10,21-trioxa-22λ⁶-thia-2-azahexacyclo[14.7.1.0^2,¹⁴.0⁵,¹^3.0⁷,¹¹.0^2⁰,^2⁴]tetracosa-5,7(11),12,14,16,18,20(24)-heptaene-22,22-dione]	560 ± 20 nM	> 100000	sensitizing effect on topotecan cytotoxicity (HeLa cells [4]): most pronounced and statistically significant; also recorded: enhances the cytotoxic effect of topotecan
CCCC1C2c3c(c(Br)cc(OC)c3OS1(=O)=O)C=C1c3cc4c(cc3CCN12)OCO4 (stereo not drawn) [18d, 17-Bromo-19-methoxy-23-propyl-8,10,21-trioxa-22λ⁶-thia-2-azahexacyclo[14.7.1.0^2,¹⁴.0⁵,¹^3.0⁷,¹¹.0^2⁰,^2⁴]tetracosa-5,7(11),12,14,16,18,20(24)-heptaene-22,22-dione]	780 ± 30 nM	> 100000	
COc1ccc2c(c1OS(C)(=O)=O)CN1CCc3cc4c(cc3C1C2)OCO4 (stereo not drawn) [21a]			IC50 [5]: > 15000 nM
CCS(=O)(=O)Oc1c(OC)ccc2c1CN1CCc3cc4c(cc3C1C2)OCO4 (stereo not drawn) [21b]			IC50 [5]: > 15000 nM
COc1ccc2cc3[n+](cc2c1OC)CCc1cc2c(cc1-3)OCO2 [berberine 1, berberine]			CC50 at 3 days ([2]; HeLa cells, EZ4U test, 3 days, read-out: CC50 HeLa): 20000 nM; concentration above which toxic to HeLa cells (HeLa cells [3]; HeLa cells): above 20 μM
